We go through 28 compounds from patent publication US7759366B2 (Sanofi-Aventis, priority 2006, dated 2010).

This assay concerns the target hCB1R (Homo sapiens, UniProt P21554). Kind of assay: Binding to the CB1 receptor ([3H]-SR141716A displacement). As to the method: Binding to the CB1 Receptor:
Test compounds: The compounds (3 μl, 10 mM, 100% DMSO), pipetted into 96-well PP microtiter plates, were diluted with 27 μl of 100% DMSO (dimethyl sulfoxide). Proceeding from this solution, further 3-fold dilution steps were undertaken by transferring 10 μl in each case to a new PP microtiter plate and adding a further 20 μl of 100% DMSO. In each case 6 μl of these solutions were transferred into new 96-well PP microtiter plates and made up with 144 μl of assay buffer. The end concentrations ranged from 10 μM to 0.005 μM. Negative control: AM 251, dissolved in assay buffer with 1% DMSO, was added to the dilution series in the microtiter plates as a control. The end concentration was 1 μM. Blank control: assay buffer with 1% DMSO was added to the dilution series of the microtiter plates as a blank control.
Summary of the Assay Parameters:
High control: ^3H binding without addition of the compound
Low control: ^3H binding in the presence of 1 μM AM 251
The values were calculated using the corrected raw data.
The values reported were obtained as average values of a double determination. The IC50 values were calculated from the measurements with the program Xlfit, formula 205. Ki values were obtained from the IC50 and Kd values utilizing the Cheng-Prusoff equation: […]
Literature: Cheng, Y.-C., and Prusoff, W. H. (1973) Biochem. Pharmacol 22, 3099-3108

Setting [1] is: CHO-K1/cannabinoid CB1 protein 2 μg/well, [3H]-SR141716A 0.5 nM, Ki from IC50 by Cheng-Prusoff, average of double determination, read-out: hCB1R, binding Ki.

Where two headings read alike, the source gives them in different places.

hCB1R, sequence (P21554 whole entry): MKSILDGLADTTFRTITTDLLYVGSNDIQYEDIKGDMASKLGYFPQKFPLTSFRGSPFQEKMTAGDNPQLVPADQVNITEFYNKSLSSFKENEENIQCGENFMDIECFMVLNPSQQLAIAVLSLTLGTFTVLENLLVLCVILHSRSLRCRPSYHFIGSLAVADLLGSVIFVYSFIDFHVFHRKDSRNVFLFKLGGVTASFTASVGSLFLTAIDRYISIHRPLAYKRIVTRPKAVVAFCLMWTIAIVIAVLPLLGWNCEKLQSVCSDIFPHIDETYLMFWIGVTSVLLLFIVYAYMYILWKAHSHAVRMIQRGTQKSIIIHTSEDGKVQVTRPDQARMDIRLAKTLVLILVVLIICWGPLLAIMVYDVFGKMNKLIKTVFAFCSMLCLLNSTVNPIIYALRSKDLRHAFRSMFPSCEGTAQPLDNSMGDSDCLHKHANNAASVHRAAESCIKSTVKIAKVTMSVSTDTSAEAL

Regarding `CC1(C)C(=O)N(c2ccc(C#N)c(C(F)(F)F)c2)C(=O)N1Cc1cc(C(F)(F)F)ccc1Nc1ccc(Cl)cc1` [Example 19, 4-{3-[2-(4-chlorophenylamino)-5-trifluoromethylbenzyl]-4,4-dimethyl-2,5-dioxoimidazolidin-1-yl}-2-trifluoromethylbenzonitrile], the Ki worked out at 5 nM.

The compound `CC1(C)C(=O)N(c2ccc(F)c(C(F)(F)F)c2)C(=O)N1Cc1ccccc1Nc1ccccc1` [Example 23, 3-(4-Fluoro-3-trifluoromethylphenyl)-5,5-dimethyl-1-(2-phenylaminobenzyl)imidazolidin-2,4-dione] displayed a Ki of 10 nM. In the case of `CC1(C)C(=O)N(c2ccc(F)c(C(F)(F)F)c2)C(=O)N1Cc1ccccc1Nc1ccc(F)cc1` [Example 24, 1-[2-(4-fluorophenylamino)benzyl]-3-(4-fluoro-3-trifluoromethylphenyl)-5,5-dimethylimidazolidine-2,4-dione], the Ki under setting [1] was 11 nM. Same read-out and setting: the same measure for `CC1(C)C(=O)N(c2ccc(F)c(C(F)(F)F)c2)C(=O)N1Cc1ccccc1Nc1ccc(Cl)cc1` [Example 25, 1-[2-(4-chlorophenylamino)benzyl]-3-(4-fluoro-3-trifluoromethylphenyl)-5,5-dimethylimidazolidine-2,4-dione]: 6 nM. The compound `CC1(C)C(=O)N(c2ccc(C#N)c(C(F)(F)F)c2)C(=O)N1Cc1ccccc1Nc1ccc(S(F)(F)(F)(F)F)cc1` [Example 26, 4-{3-[2-(4-pentafluorosulfanylphenylamino)benzyl]-4,4-dimethyl-2,5-dioxoimidazolidin-1-yl}-2-trifluoromethylbenzonitrile] came in with a Ki of 39 nM. Compound `CC1(C)C(=O)N(c2ccc(C#N)c(C(F)(F)F)c2)C(=O)N1Cc1ccccc1Nc1ccc(S(C)(=O)=O)cc1` [Example 27, 4-{3-[2-(4-methylsulfonylphenylamino)benzyl]-4,4-dimethyl-2,5-dioxoimidazolidin-1-yl}-2-trifluoromethylbenzonitrile] showed a Ki of 17 nM.

In turn, `N#Cc1ccc(N2C(=O)N(Cc3ccccc3Nc3ccccc3)C3(CCCCC3)C2=O)cc1C(F)(F)F` [Example 28, 4-[2,4-Dioxo-1-(2-phenylaminobenzyl)-1,3-diazaspiro[4.5]dec-3-yl]-2-trifluoromethylbenzonitrile] had a Ki of 87 nM.

For the compound `CC1(C)C(=O)N(c2ccc(C#N)c(C(F)(F)F)c2)C(=O)N1Cc1cccc(Nc2ccccc2)c1` [Example 29, 4-[4,4-Dimethyl-2,5-dioxo-3-(3-phenylaminobenzyl)imidazolidin-1-yl]-2-trifluoromethylbenzonitrile], the Ki under setting [1] stood at 107 nM. Turning to `CC1(C)C(=O)N(c2ccc(C#N)c(C(F)(F)F)c2)C(=O)N1Cc1ccccc1Nc1ccc2c(c1)OC(F)(F)O2` [Example 32, 4-{3-[2-(2,2-difluorobenzo[1,3]dioxol-5-ylamino)benzyl]-4,4-dimethyl-2,5-dioxoimidazolidin-1-yl}-2-trifluoromethylbenzonitrile], the Ki was determined as 3 nM. On the same count and under the same terms, the same measure for `CC1(C)C(=O)N(c2ccc(C#N)c(C(F)(F)F)c2)C(=O)N1Cc1ccccc1Nc1cccc(C(F)(F)F)c1` [Example 34, 4-{3-[2-(3-trifluoromethylphenylamino)benzyl]-4,4-dimethyl-2,5-dioxoimidazolidin-1-yl}-2-trifluoromethylbenzonitrile]: 14 nM. In the case of `CC1(C)C(=O)N(c2ccc(Oc3ccc(Cl)cc3)c(C(F)(F)F)c2)C(=O)N1Cc1ccccc1Nc1ccc(F)cc1F` [Example 50, 3-[4-(4-Chlorophenoxy)-3-trifluoromethylphenyl]-1-[2-(2,4-difluorophenylamino)benzyl]-5,5-dimethylimidazolidine-2,4-dione], the Ki under setting [1] came out at 11 nM. On to `CC1(C)C(=O)N(c2ccc(C#N)c(S(F)(F)(F)(F)F)c2)C(=O)N1Cc1ccccc1Nc1ccc(F)cc1F` [Example 51, 4-{3-[2-(2,4-Difluorophenylamino)benzyl]-4,4-dimethyl-2,5-dioxoimidazolidin-1-yl}-2-pentafluorosulfanylbenzonitrile], for which the Ki came to 2 nM.

Compound `CC1(C)C(=O)N(c2ccc(F)c(C(F)(F)F)c2)C(=O)N1Cc1ccccc1Nc1ccc(F)cc1F` [Example 52, 1-[2-(2,4-difluorophenylamino)benzyl]-3-(4-fluoro-3-trifluoromethylphenyl)-5,5-dimethylimidazolidine-2,4-dione] came in with a Ki of 3 nM. As for `CC1(C)C(=O)N(c2ccc(C#N)c(C(F)(F)F)c2)C(=O)N1Cc1ccccc1Nc1ccc(F)cc1C#N` [Example 53, 4-{3-[2-(2-cyano-4-fluorophenylamino)benzyl]-4,4-dimethyl-2,5-dioxoimidazolidin-1-yl}-2-trifluoromethylbenzonitrile], the Ki worked out at 2 nM. Still for that read-out and setting: the same measure for `CC1(C)C(=O)N(c2ccc(C#N)c(C(F)(F)F)c2)C(=O)N1Cc1ccccc1Nc1ccncc1` [Example 61, 4-{4,4-Dimethyl-2,5-dioxo-3-[2-(pyridin-4-ylamino)benzyl]imidazolidin-1-yl}-2-trifluoromethylbenzonitrile]: 19 nM. The same measure, in the same setting: the same measure for `CC1(C)C(=O)N(c2ccc(C#N)c(C(F)(F)F)c2)C(=O)N1Cc1ccccc1Nc1ccc(C(=O)O)cc1` [Example 62]: 16 nM; for `CC(C)(C)c1cc(N2C(=O)N(Cc3ccccc3Nc3ccccc3)C(C)(C)C2=O)ccc1C#N` [Example 63, 2-tert-Butyl-4-[4,4-dimethyl-2,5-dioxo-3-(2-phenylaminobenzyl)imidazolidin-1-yl]benzonitrile]: 9 nM. With `CC1(C)C(=O)N(c2ccc(C#N)nc2)C(=O)N1Cc1ccccc1Nc1ccccc1` [Example 69], the Ki under setting [1] was found to be 113 nM. On to `CC1(C)C(=O)N(c2ccc(C#N)nc2)C(=O)N1Cc1ccccc1Nc1ccc(F)cc1F` [Example 70, 5-{3-[2-(2,4-difluorophenylamino)benzyl]-4,4-dimethyl-2,5-dioxoimidazolidin-1-yl}pyridine-2-carbonitrile], for which the Ki under setting [1] was found to be 27 nM.

With `COC(=O)c1ccc(Nc2cc(OC)ccc2CN2C(=O)N(c3ccc(C#N)c(C(F)(F)F)c3)C(=O)C2(C)C)cc1` [Example 110, Methyl 4-{2-[3-(4-cyano-3-trifluoromethylphenyl)-5,5-dimethyl-2,4-dioxoimidazolidin-1-ylmethyl]-5-methoxyphenylamino}benzoate], the Ki stood at 5 nM. Still for that read-out and setting: the value for `COC(=O)c1ccc(Nc2cc(F)ccc2CN2C(=O)N(c3ccc(C#N)c(C(F)(F)F)c3)C(=O)C2(C)C)cc1` [Example 111, Methyl 4-{2-[3-(4-cyano-3-trifluoromethylphenyl)-5,5-dimethyl-2,4-dioxoimidazolidin-1-ylmethyl]-5-fluorophenylamino}benzoate] was 1 nM. For `CC1(C)C(=O)N(c2ccc(C#N)c(C(F)(F)F)c2)C(=O)N1Cc1ccccc1Nc1ccc([N+](=O)[O-])cc1` [Example 112, 4-{4,4-dimethyl-3-[2-(4-nitrophenylamino)benzyl]-2,5-dioxoimidazolidin-1-yl}-2-trifluoromethylbenzonitrile], the Ki came out at 1 nM. In turn, `CC1(C)C(=O)N(c2ccc(C#N)c(C(F)(F)F)c2)C(=O)N1Cc1ccccc1Nc1ccc(C=O)cc1` [Example 120, 4-{3-[2-(4-formylphenylamino)benzyl]-4,4-dimethyl-2,5-dioxoimidazolidin-1-yl}-2-trifluoromethylbenzonitrile] yielded a Ki of 5 nM.

Take `CC(C)(C)OC(=O)c1ccc(Nc2cc(C#N)ccc2CN2C(=O)N(c3ccc(C#N)c(C(F)(F)F)c3)C(=O)C2(C)C)cc1` [Example 126, tert-Butyl 4-{5-cyano-2-[3-(4-cyano-3-trifluoromethylphenyl)-5,5-dimethyl-2,4-dioxoimidazolidin-1-ylmethyl]phenylamino}benzoate]: the Ki was found to be 23 nM. On the same count and under the same terms, the value for `CC1(C)C(=O)N(c2ccc(C#N)c(C(F)(F)F)c2)C(=O)N1Cc1ccccc1Nc1ccc(Oc2ccccc2)cc1` [Example 128, 4-{4,4-dimethyl-2,5-dioxo-3-[2-(4-phenoxyphenylamino)benzyl]-imidazolidin-1-yl}-2-trifluoromethylbenzonitrile] was 2 nM; that for `COC(=O)c1cc(Nc2ccccc2CN2C(=O)N(c3ccc(C#N)c(C(F)(F)F)c3)C(=O)C2(C)C)ccc1OC` [Example 129, methyl 5-{2-[3-(4-cyano-3-trifluoromethylphenyl)-5,5-dimethyl-2,4-dioxoimidazolidin-1-ylmethyl]phenylamino}-2-methoxybenzoate] was 10 nM; that for `CC1(C)C(=O)N(c2ccc(C#N)c(C(F)(F)F)c2)C(=O)N1Cc1ccc(C#N)cc1Nc1ccc(C(=O)O)cc1` [Example 132, 4-{5-cyano-2-[3-(4-cyano-3-trifluoromethylphenyl)-5,5-dimethyl-2,4-dioxoimidazolidin-1-ylmethyl]phenylamino}benzoic acid] was 6 nM. Take `CC1(C)C(=O)N(c2ccc(F)c(C(F)(F)F)c2)C(=O)N1Cc1ccccc1Nc1ccc(C#N)cc1` [Example 134, 4-{2-[3-(4-fluoro-3-trifluoromethylphenyl)-5,5-dimethyl-2,4-dioxoimidazolidin-1-ylmethyl]phenylamino}benzonitrile]: the Ki was found to be 4 nM.
